# Reference: US4005217A, “Treatment of helminth infections with substituted phenyl-thiourea derivatives” (May & Baker Limited, priority 1970, dated 1977)
# Counter-ions that a name gives are not always drawn. Like-named read-outs stand apart in the source and are kept apart here.
# Columns and labels:
# [1] = test system: Nippostrongylus brasiliensis; assay: Test 1: activity against roundworms in rats, treatment 6 days after infection (patent infection), worm counts 48 hours after treatment; format: in vivo; conditions: Nippostrongylus brasiliensis, po, 48 h, Test 1, 1000 mg/kg oral, read-out: Percentage reduction in N.brasiliensis load
# Protocol: Test 1 - Rats were infected with 100 Nippostrongylus brasiliensis larvae each, by the subcutaneous route. After 6 days, when the infection was patent, the rats were randomised and alloted to groups of 10 animals each, ready for treatment. One group was used for each dose level of the test compound and, in each experiment, one group was left untreated as a control. All the rats were killed for post-mortem worm counts 48 hours after treatment. The activity, expressed in terms of the percentage reduction in mean worm load of the treated group compared with the untreated group, is shown in Table I.
# [2] = test system: Nippostrongylus brasiliensis; assay: Test 2: activity against roundworms in rats, treatment 24 hours after infection, worm counts 6 days after dosing; format: in vivo; conditions: Nippostrongylus brasiliensis, 144 h, rats, read-out: Percentage reduction in N.brasiliensis load
# Protocol: Test 2 -- Rats were infected with 100 Nippostrongylus brasiliensis larvae each, by the subcutaneous route. After 24 hours the rats were randomised and allotted to groups of 5 animals each, ready for treatment. Doses of the test compound were then administered to each group by the oral, subcutaneous and intraperitoneal routes respectively, one group of 10 animals being left untreated as a control. All the rats were killed for post-mortem worm counts 6 days after dosing. The activities, expressed in terms of the percentage reductions in mean worm load of the treated groups or damage to the worms compared with the untreated control group, are given below in Table I.
# [3] = test system: Trichinella spiralis; assay: Activity against roundworms in mice; format: in vivo; conditions: 100 mg/kg subcutaneous at 2 hours and 24 hours post infection, killed 5 days after second dose
# Protocol: Mice were infected with approximately 100 Trichinella spiralis larvae each, by the oral route. The mice were randomised and allotted to two groups of 4 animals each. Doses of 1-methoxycarbonyl-3-(2-dimethylaminoacetamidophenyl)thiourea hydrochloride were then administered to one group by the subcutaneous route at 2 hours post infection and again at 24 hours post infection, one group of 4 animals being left untreated as a control. The doses given to the mice were 100 mg/kg animal body weight. All the mice were killed for postmortem examination 5 days after the second dose. The activity, expressed in terms of the percentage reduction in mean worm load of the treated group compared with the control group, was 95%.
# [4] = test system: Haemonchus contortus; assay: Activity against mature adult stages in lambs, oral treatment (Table III); format: in vivo; conditions: 120 h, 15 mg/kg oral, read-out: Mean percentage reduction in worm burdens, H.contortus
# Protocol: (§1) ii. 20 Worm-free lambs were each infected with H. contortus (approximately 5,600), T. axei (approximately 9,300) and T. colubriformis (approximately 10,000) infective larvae. After 22 days, 16 lambs were treated orally with 15 mg/kg animal body weight of the 8 test compounds, i.e. 2 lambs per compound, against the mature adult stages of the worms. 27 Days after infection, all 20 lambs were killed for post-mortem worm counts and the burden of each worm species in the 16 treated animals compared with those in the remaining 4 untreated control animals.
# [5] = test system: Trichostrongylus axei; assay: as above; format: in vivo; conditions: 120 h, 15 mg/kg oral, read-out: Mean percentage reduction in worm burdens, T.axei
# Protocol: as §1
# [6] = test system: Trichostrongylus colubriformis; assay: as above; format: in vivo; conditions: 120 h, 15 mg/kg oral, read-out: Mean percentage reduction in worm burdens, T.colubriformis
# Protocol: as §1
# [7] = test system: H. contortus; assay: Activity in lambs by subcutaneous injection against 4th larval and adult stages; format: in vivo; conditions: 75 mg/kg subcutaneous injection (18% w/v aqueous solution)
# Protocol: (§2) b. 8 Worm-free lambs were each infected with H. contortus (approximately 7,000) and T. colubriformis ((approximately 15,000) infective larvae. After 7 days, 2 lambs were treated by subcutaneous injection of an 18% w/v aqueous solution at 75 mg/kg animal body weight of the test compound against the 4th larval stages of the worms. 28 Days after infection, 2 lambs were similarly treated against the adult stages of the worms. 35 Days after infection all 8 lambs were killed for post-mortem worm counts and the burdens of each worm species in the 4 treated animals compared with those in the remaining 4 untreated animals.
# [8] = test system: T. colubriformis; assay: as above; format: in vivo; conditions: 75 mg/kg subcutaneous injection (18% w/v aqueous solution)
# Protocol: as §2
# [9] = test system: Nippostrongylus brasiliensis eggs; assay: In vitro activity against roundworms (egg hatching and larvae); format: cell-based; conditions: 96 h, tested at 100, 10, 1 and 0.1 μg/ml, inhibited or delayed hatching of eggs, or killed, retarded growth or reduced activity of larvae during 4 days, read-out: M.I.C. (minimum inhibitory concentration)
# Protocol: Compounds of formula I were tested at concentrations of 100 μg/ml, 10 μg/ml, 1 μg/ml and 0.1 μg/ml in small glass containers. If the compound was not soluble in water, a volatile organic medium, e.g. acetone, chloroform, ethanol or methanol was used. An amount of material appropriate for each final concentration was measured and placed in duplicate test containers and if an organic solvent was used it was allowed to evaporate completely. Nippostrongylus brasiliensis eggs were recovered by saturated saline centrifugal flotation from the faeces of rats heavily infected with third stage larvae six days previously. They were washed several times in water and suspended in water in a suitable concentration. From 25-50 eggs were placed in each container and the final volume was made up by the addition of a very dilute aqueous suspension of mouse faeces which served as the growth medium. The minimum inhibitory concentrations of each compound (M.I.C.), shown in the following Table V was the minimum concentration in μg/ml total liquid volume at which it inhibited or delayed hatching of eggs, or at which it killed, retarded growth or reduced activity of larvae during the 4 days after beginning the test.
smiles,measurement,setting,value
COC(=O)NC(=S)Nc1ccccc1NC(=O)CN(C)C [1-methoxycarbonyl-3-(2-dimethylaminoacetamidophenyl)thiourea hydrochloride],inhibition in vivo at 1000 mg/kg,[1],91%
same,inhibition in vivo at 1000 mg/kg,"[2]; Test 2, 1000 mg/kg oral",100%
same,inhibition in vivo at 50 mg/kg,"[2]; ip, Test 2, 50 mg/kg intraperitoneal",89%
same,inhibition in vivo at 100 mg/kg,"[2]; ip, Test 2, 100 mg/kg intraperitoneal",99%
same,inhibition in vivo at 250 mg/kg,"[2]; ip, Test 2, 250 mg/kg intraperitoneal",96%
same,inhibition in vivo at 60 mg/kg,"[2]; sc, Test 2, 60 mg/kg subcutaneous",89.8%
same,inhibition in vivo at 250 mg/kg,"[2]; sc, Test 2, 250 mg/kg subcutaneous",99.5%
same,inhibition in vivo at 500 mg/kg,"[2]; sc, Test 2, 500 mg/kg subcutaneous",99.5%
same,percentage reduction in mean worm load,[3],95%
same,inhibition in vivo at 15 mg/kg,[4],60%
same,inhibition in vivo at 15 mg/kg,[5],78%
same,inhibition in vivo at 15 mg/kg,[6],43.4%
same,"Mean percentage reduction in worm burdens, H.contortus",[7]; 4th larval stage,87.1%
same,"Mean percentage reduction in worm burdens, H.contortus",[7]; adult stage,95.3%
same,"Mean percentage reduction in worm burdens, T.colubriformis",[8]; 4th larval stage,99.9%
same,"Mean percentage reduction in worm burdens, T.colubriformis",[8]; adult stage,99.7%
same,MIC,[9],1 µg/mL
